Assay results: US6800482B2, “Cultured cells of Australian laurel, Pittosporaceae and a method for culturing tissues by using said cultured cells” (Hiroshima University, priority 2001, dated 2004)

Columns and labels:
Assay type in all cases: cell-based
[1] = system: cut pieces from the stem of Australian laurel, Pittosporaceae; experiment: Tissue culture of cut pieces in culture medium containing thidiazuron and naphthaleneacetic acid (Example 1, Table 1); conditions: for Numbers of cut pieces leading to stem or leaf/10 cut pieces: NAA 0 μM, WP culture medium, 6 weeks
Experimental: (§1) A WP culture medium or a MS culture medium was used as a fundamental culture medium. As a carbon source was used 1% sucrose, and 0.3% Gellan-Gum (Trade name) was used as a gelling agent. An Australian laurel, Pittosporaceae seed was treated with 70% ethanol for 1 hour with 2.5% sodium hypochlorite for 1 hour, and sterilized by washing it with sterilized water. After water was fed to the seed 2 night or more at 4° C. in dark, it was planted in the culture medium. After germination, a seedling of four weeks age was used for a tissue culturing. Cut pieces, 1 mm thick, were prepared from a leave, a stem and a roof of the living matter, and planted and cultured in the same culture medium as mentioned above but containing naphthaleneacetic acid and thidiazuron (TDZ) as a hormon. […] About 2 months after the planting, a shoot was cut out from the polyblast, and indoleacetic acid was applied to a cut portion of the shoot. The shoot treated with indoleacetic acid was inserted into a solid culture medium or a mixed soil of perlite and vermiculite containing a culture medium. The shoot was cultured and rooted.
Cut pieces from the stem was cultured in the WP culture medium added with thidiazuron and naphthaleneacetic acid for 6 weeks, and observation results thereof are shown in Table 1.

[2] = system: leaf of the Australian laurel, Pittosporaceae; experiment: Redifferentiation from the leaf in WP culture medium (Example 3, Table 2); conditions: NAA 0 μM, 22 to 28° C., bright place
Experimental: as §1
Redifferentiation from the leaf and the stem of the Australian laurel, Pittosporaceae was examined. The WP culture medium was used as a culture medium. A culturing temperature was set in a range of 22 to 28° C. The Australian laurel, Pittosporaceae was cultured in a bright place. […]

[3] = system: Embryo (text: stem) of the Australian laurel, Pittosporaceae; experiment: Redifferentiation, column Embryo, in WP culture medium (Example 3, Table 2); conditions: for Redifferentiation Embryo: NAA 0 μM, WP culture medium, 22 to 28° C., bright place
Experimental: as §1
Redifferentiation from the leaf and the stem of the Australian laurel, Pittosporaceae was examined. The WP culture medium was used as a culture medium. A culturing temperature was set in a range of 22 to 28° C. The Australian laurel, Pittosporaceae was cultured in a bright place. The planting condition and the other culturing conditions were the same as those in Example 1.

## O=C(Nc1ccccc1)Nc1cnns1 [TDZ, thidiazuron]
[1]; TDZ 0.1 μm
  Numbers of cut pieces leading to stem or leaf/10 cut pieces: 0 /10 cut pieces
[1]; TDZ 10 μm
  Numbers of cut pieces leading to stem or leaf/10 cut pieces: 0 /10 cut pieces
[1]; concentration of thidiazuron not less than 10 μM, culture medium containing naphthaleneacetic acid
  Redifferentiation: redifferentiation was confirmed
[2]; TDZ 10^4 nM
  Redifferentiation Leaf: 0%
[2]; TDZ 10^5 nM
  Redifferentiation Leaf: 0%
[3]; TDZ 10^4 nM
  Redifferentiation Embryo: 5.0%
[3]; TDZ 10^5 nM
  Redifferentiation Embryo: 10.0%
[3]; cultures containing 10^4 to 10^5 nM thidiazuron
  Redifferentiation percentages: considerably high redifferentiation percentages
